The compounds below were run against T1, human EP3 receptor (Homo sapiens, UniProt P43115) (assay: Cellular in vitro assay for determining EP3 receptor activity (human EP3 cell line, sulprostone-stimulated calcium luminescence)). Conditions: CHO cells expressing human EP3 and mitochondrial Clytin; antagonist mode, sulprostone at EC50; read-out: EP3 CHO mtCLY ANTAG IC50.
T1 construct: expressed in transfected cells; host or cells: CHO K1 (Chinese Hamster Ovary), stably co-transfected with Galpha16 and mitochondrial clytin
T1 sequence (P43115 1-390): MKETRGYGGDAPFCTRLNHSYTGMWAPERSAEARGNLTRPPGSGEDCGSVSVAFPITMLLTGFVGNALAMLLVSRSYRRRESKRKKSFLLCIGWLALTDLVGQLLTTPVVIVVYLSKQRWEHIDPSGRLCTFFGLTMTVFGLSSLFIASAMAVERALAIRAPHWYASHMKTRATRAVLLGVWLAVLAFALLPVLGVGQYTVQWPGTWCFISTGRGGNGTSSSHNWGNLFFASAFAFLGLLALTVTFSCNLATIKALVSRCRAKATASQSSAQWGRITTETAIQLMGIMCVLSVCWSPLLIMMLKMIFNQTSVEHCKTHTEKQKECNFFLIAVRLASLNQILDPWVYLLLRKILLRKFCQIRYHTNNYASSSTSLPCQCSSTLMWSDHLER
Type: cell-based
Procedure, shortened: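 Antagonist activity was measured as inhibition of the luminescent calcium signal elicited by EC50 sulprostone, following 10 min compound pretreatment. The cell line was recombinant CHO K1 co-expressing human EP3, Gα16 and the photoprotein Clytin, reconstituted with coelenterazine.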

| Compound | IC50 |
| --- | --- |
| CCN1CC(NC(=O)c2nn3cc(-c4ccc5ccccc5c4)[nH]c(=O)c3c2C(F)(F)F)(c2ccc(F)cc2)C1 [Example 1-126, N-[1-Ethyl-3-(4-fluorophenyl)azetidin-3-yl]-6-(naphthalen-2-yl)-4-oxo-3-(trifluoromethyl)-4,5-dihydropyrazolo[1,5-a]pyrazine-2-carboxamide] | 5.1 nM |
| COc1ccc([C@H](CCO)NC(=O)c2nn3cc(-c4ccc5ccccc5c4)[nH]c(=O)c3c2C#N)cc1 [Example 3-63, 3-Cyano-N-[(1S)-3-hydroxy-1-(4-methoxyphenyl)propyl]-6-(naphthalen-2-yl)-4-oxo-4,5-dihydropyrazolo[1,5-a]pyrazine-2-carboxamide] | 3.9 nM |
| Cc1c(C(=O)NCc2ccnn2C)nn2c(C)c(-c3ccc4ccccc4c3)[nH]c(=O)c12 [Example 3-11, 3,7-Dimethyl-N-[(1-methyl-1H-pyrazol-5-yl)methyl]-6-(naphthalen-2-yl)-4-oxo-4,5-dihydropyrazolo[1,5-a]pyrazine-2-carboxamide] | 2.05 nM |
| Cc1cnn(CC(C)NC(=O)c2cc3c(=O)[nH]c(-c4ccc5ccccc5c4)cn3n2)c1 (stereo not drawn) [Example 2-29, N-[1-(4-Methyl-1H-pyrazol-1-yl)propan-2-yl]-6-(2-naphthyl)-4-oxo-4,5-dihydropyrazolo[1,5-a]pyrazine-2-carboxamide] | 7.25 nM |
| Cc1cc(-c2cn3nc(C(=O)N[C@@H](c4ccc(F)cc4)C(F)(F)CO)c(C(F)(F)C(F)(F)F)c3c(=O)[nH]2)ccc1Cl [6-477] | 0.44 nM |
| CC(C)(O)[C@@H](NC(=O)c1nn2cc(-c3cc(Cl)c(Cl)cc3F)[nH]c(=O)c2c1C1CC1)c1ccc(F)cc1 [6-583] | 0.63 nM |
| COc1ccc(C(C)NC(=O)c2cc3c(=O)[nH]c(-c4ccc5ccccc5c4)cn3n2)cc1OC (stereo not drawn) [Example 2-55, N-[1-(3,4-Dimethoxyphenyl)ethyl]-6-(2-naphthyl)-4-oxo-4,5-dihydropyrazolo[1,5-a]pyrazine-2-carboxamide] | 1.15 nM |
| Cc1cccc2ncc(-c3cn4nc(C(=O)NCc5ccnn5C)c(C(C)C)c4c(=O)[nH]3)cc12 [Example 4-22, N-[(1-Methyl-1H-pyrazol-5-yl)methyl]-6-(5-methylquinolin-3-yl)-4-oxo-3-(propan-2-yl)-4,5-dihydropyrazolo[1,5-a]pyrazine-2-carboxamide] | 0.815 nM |
| Cc1ccc(-c2cn3nc(C(=O)NC4(c5ccc(F)cc5)COC4)cc3c(=O)[nH]2)cc1C [6-55] | 1.53 nM |
| Cc1ccc(-c2cn3nc(C(=O)NCC(O)(C(F)(F)F)C(F)(F)F)c(C4CC4)c3c(=O)[nH]2)cc1Cl [6-261] | 2.7 nM |
| Cc1ccc(-c2cn3nc(C(=O)NCC(O)C(F)(F)F)c(C4CC4)c3c(=O)[nH]2)cc1C(F)(F)F (racemic) [6-243] | 2 nM |
| O=C(NCc1cc(F)ccc1F)c1cc2c(=O)[nH]c(-c3ccc4ccccc4c3)cn2n1 [Example 2-53, N-(2,5-Difluorobenzyl)-6-(2-naphthyl)-4-oxo-4,5-dihydropyrazolo[1,5-a]pyrazine-2-carboxamide] | 3.7 nM |
| Cc1cc(-c2cn3nc(C(=O)NC(c4ccc(F)cc4)C4(O)CC4)c(C(F)(F)F)c3c(=O)[nH]2)ccc1Cl (racemic) [6-210] | 1.45 nM |
| CC(C)(O)[C@@H](NC(=O)c1cc2c(=O)[nH]c(-c3ccc4ccccc4c3)cn2n1)c1ccc(F)cc1 [Example 1-29, N-[(1S)-1-(4-Fluorophenyl)-2-hydroxy-2-methylpropyl]-6-(naphthalen-2-yl)-4-oxo-4,5-dihydropyrazolo[1,5-a]pyrazine-2-carboxamide] | 1.55 nM |
| CCC(NC(=O)c1cc2c(=O)[nH]c(-c3ccc4ccccc4c3)cn2n1)C(F)(F)F (stereo not drawn) [6-61] | 4.13 nM |
| COC[C@@H](NC(=O)c1nn2cc(-c3ccc(C)c(Cl)c3)[nH]c(=O)c2c1C(F)(F)F)c1ccccc1 [6-177] | 0.67 nM |
| Cc1cc(-c2cn3nc(C(=O)N[C@@H](C)C4CC4)c(C4CC4(F)F)c3c(=O)[nH]2)ccc1Cl (stereo partly drawn) [6-550] | 0.84 nM |
| Cc1cc(-c2cn3nc(C(=O)N[C@@H](c4ccc(F)cc4)C(C)(C)O)c(C4CC4)c3c(=O)[nH]2)ccc1C(F)(F)F [Example 1-132, 3-Cyclopropyl-N-[(1S)-1-(4-fluorophenyl)-2-hydroxy-2-methylpropyl]-6-[3-methyl-4-(trifluoromethyl)phenyl]-4-oxo-4,5-dihydropyrazolo[1,5-a]pyrazine-2-carboxamide] | 4.05 nM |
| Cc1ccc(-c2cn3nc(C(=O)NC4(c5ccc(F)cc5)CN(CC(F)F)C4)c(C(F)(F)F)c3c(=O)[nH]2)cc1Cl [6-202] | 0.97 nM |
| Cc1ccc(-c2cn3nc(C(=O)NC(CO)C(F)(F)F)c(C(F)(F)F)c3c(=O)[nH]2)cc1Cl (single isomer, unassigned) [6-162] | 9.55 nM |
| Cc1ccc(-c2cn3nc(C(=O)NCCNCC(F)F)c(C(F)(F)F)c3c(=O)[nH]2)cc1Cl [6-165] | 9.75 nM |
| Cc1ccc(-c2cn3nc(C(=O)NC4(c5ccc(F)cc5)CN(C)C4)c(C4CCC4)c3c(=O)[nH]2)cc1F [6-574] | 1.5 nM |
| Cc1cc(-c2cn3nc(C(=O)N[C@@H](C)C(C)C)c(C4CC4)c3c(=O)[nH]2)ccc1Cl [6-302] | 2.95 nM |
| Cc1cc(-c2cn3nc(C(=O)N[C@@H](c4ccc(F)cc4)C(C)(C)O)c(C(F)(F)F)c3c(=O)[nH]2)ccc1Cl [Example 1-166, 6-(4-Chloro-3-methylphenyl)-N-[(1S)-1-(4-fluorophenyl)-2-hydroxy-2-methylpropyl]-4-oxo-3-(trifluoromethyl)-4,5-dihydropyrazolo[1,5-a]pyrazine-2-carboxamide] | 3.15 nM |
| Cc1c(C(=O)N[C@H](C)c2ccccc2)nn2c(C)c(-c3ccc4ccccc4c3)[nH]c(=O)c12 [Example 3-65, 3,7-Dimethyl-6-(naphthalen-2-yl)-4-oxo-N-[(1R)-1-phenylethyl]-4,5-dihydropyrazolo[1,5-a]pyrazine-2-carboxamide] | 2 nM |
| COc1ccc(C2(NC(=O)c3cc4c(=O)[nH]c(-c5ccc(C)c(C)c5)cn4n3)CN(C(C)=O)C2)cc1 [Example 1-156, N-[1-Acetyl-3-(4-methoxyphenyl)azetidin-3-yl]-6-(3,4-dimethylphenyl)-4-oxo-5H-pyrazolo[1,5-a]-pyrazine-2-carboxamide] | 3.05 nM |
| COc1ccc(CNC(=O)c2cc3c(=O)[nH]c(-c4ccc(C)c(Cl)c4)c(C)n3n2)cc1OC [Example 1-129, 6-(3-Chloro-4-methylphenyl)-N-(3,4-dimethoxybenzyl)-7-methyl-4-oxo-4,5-dihydropyrazolo-[1,5-a]pyrazine-2-carboxamide] | 7.82 nM |
| Cc1ccc(-c2cn3nc(C(=O)N[C@@H](c4ccc(F)cc4)C(C)(C)O)c(C(F)(F)F)c3c(=O)[nH]2)cc1F [Example 1-147, 6-(3-Fluoro-4-methylphenyl)-N-[(15)-1-(4-fluorophenyl)-2-hydroxy-2-methylpropyl]-4-oxo-3-(trifluoromethyl)-4,5-dihydropyrazolo[1,5-a]pyrazine-2-carboxamide] | 2.9 nM |
| Cc1cccc2ncc(-c3cn4nc(C(=O)NC5(c6ccc(Cl)cc6)CCC5)c(C(C)C)c4c(=O)[nH]3)cc12 [Example 4-50, N-[1-(4-Chlorophenyl)cyclobutyl]-6-(5-methylquinolin-3-yl)-4-oxo-3-(propan-2-yl)-4,5-dihydropyrazolo[1,5-a]pyrazine-2-carboxamide] | 8.3 nM |
| COCc1c(C(=O)N[C@@H](c2ccc(F)cc2)C(C)(C)O)nn2cc(-c3ccc(Cl)c(F)c3)[nH]c(=O)c12 [6-625] | 9.95 nM |

Reference: patent US20220324865A1 (Bayer Aktiengesellschaft, priority 2018, published 2022)
